# Data taken from US20110224205A1 (NATIONAL TAIWAN UNIVERSITY, priority 2010, published 2011).
# Where two headings read alike, the source gives them in different places.
# Tests used:
# [1] = system: active-p38 in IEC-18 cells; experiment: Western blot active-p38, IEC-18; assay type: cell-based, rat
# IEC-18 cells = experiment: MTT assay, IEC-18 intestinal epithelial cells; assay type: cell-based, rat
# Description: (§1) A MTT [3-(4,5-dimethylthiazolyl-2)-2,5-diphenyltetrazolium bromide] (Sigma, St Louis, Mo.) assay was performed to determine cell proliferation. Briefly, CL1-5, A549, PC-9, H1650, H1975 and IEC-18 cells were plated in 96-well plates at a density of 5×10^3 cells/well. […] MTT solution to a final concentration in the culture medium 0.5 mg/ml was then added to the wells. After a further 1.5 h of incubation, the medium was removed and DMSO was added to the plates.
# [2] = Adverse gastrointestinal effects and survival in xenograft study
# [3] = system: pEGFR, pAKT in H1299 cells; experiment: Western blot EGFR signaling, H1299; assay type: cell-based, human; conditions: gefitinib 1 μM alone, curcumin 10 and 15 μM alone, or gefitinib 1 μM + curcumin 15 μM
# H1299 cells = assay type: cell-based, human
# EGFR mRNA in CL1-5 cells = experiment: Real-time quantitative RT-PCR of EGFR; assay type: cell-based, human; conditions: CL1-5, 1-20 μM, 24 h
# [4] = system: EGFR, pEGFR, AKT, pAKT in CL1-5 cells; experiment: Western blot EGFR signaling, CL1-5; assay type: cell-based, human
# [5] = system: EGFR, pEGFR, AKT, pAKT in A549 cells; experiment: Western blot EGFR signaling, A549; assay type: cell-based, human
# H1975 cells [6] = conditions: 15 μM curcumin without gefitinib
# [7] = system: CL1-5 lung adenocarcinoma xenograft; experiment: CL1-5 xenograft tumor growth; assay type: in vivo, SCID mice; conditions: control 638.55
# CL1-5 cells = assay type: cell-based, human
# Description: as §1
# H1975 cells [8] = assay type: cell-based, human
# Description: as §1
# A549 cells = assay type: cell-based, human
# Description: as §1
# H1650 cells = assay type: cell-based, human
# Description: as §1
# [9] = system: pAKT, cyclin D1 in H1975 cells; experiment: Western blot EGFR signaling, H1975; assay type: cell-based, human; conditions: H1975, curcumin 1-20 μM, EGF 20 ng/ml
# [10] = system: EGFR protein in lung adenocarcinoma cells; experiment: EGFR degradation (Western blot) and ubiquitination (immunoprecipitation); assay type: cell-based; conditions: without MG132
# [11] = system: active-p38 in CL1-5 cells; experiment: Western blot active-p38, CL1-5; assay type: cell-based, human; conditions: CL1-5, gefitinib 0-20 μM
# [12] = SCID, mouse, in vivo, po, 3 weeks
smiles,measurement,setting,value
"Cc1ccc(-n2nc(C(C)(C)C)cc2NC(=O)Nc2ccc(OCCN3CCOCC3)c3ccccc23)cc1 [BIRB 796, reference compound]",active-p38 expression on gefitinib-treated cells,"[1]; IEC-18, curcumin 5 μM, BIRB 796 10 nM",significantly decrease the active-p38 expression
same,rescue from toxic effect of gefitinib (cell survival),"IEC-18 cells; IEC-18, curcumin 5 μM, BIRB 796 10 nM, gefitinib 30 and 40 μM",rescue the cells from this toxic effect of gefitinib
CCOC(=O)CC/C(C(=O)/C=C/c1ccc(O)c(OC)c1)=C(O)\C=C\c1ccc(O)c(OC)c1 [JC-15],protection against gefitinib-induced intestinal cell death (FIG. 10),IEC-18 cells,protective effect to reduce gefitinib-induced intestinal cell death
COc1cc(/C=C/C(=O)C(C(C)=O)C(O)/C=C/c2ccc(O)c(OC)c2)ccc1O (centres unmarked) [LL68],protection against gefitinib-induced intestinal cell death (FIG. 10),IEC-18 cells,protective effect to reduce gefitinib-induced intestinal cell death
COc1cc(/C=C/C(O)=C/C(=O)/C=C/c2ccc(O)cc2)ccc1O [LL-18],protection against gefitinib-induced intestinal cell death (FIG. 10),IEC-18 cells,protective effect to reduce gefitinib-induced intestinal cell death
"COc1cc(/C=C/C(=O)/C=C(O)/C=C/c2ccc(O)c(OC)c2)ccc1O [curcumin, diferuloylmethane]",morphology / full length of the intestine,[2],no obvious differences
same,pEGFR and pAKT (FIG. 4B),[3],minimal suppressive effect
same,cell proliferation (FIG. 4A),H1299 cells,slight inhibition of cell proliferation
same,proliferation (FIG. 1A right),"H1299 cells; H1299, curcumin alone",inhibited by curcumin in a concentration-dependent manner
same,EGFR mRNA expression,EGFR mRNA in CL1-5 cells,reduce EGFR mRNA expression in a concentration-dependent manner
same,levels of EGFR and AKT in the tumors,CL1-5 tumor tissue; Western blot of tumor tissue,decreased
same,PCNA marker in tumor tissue,CL1-5 tumor tissue; immunohistochemical staining,decreased
same,cell apoptosis in tumor tissue (TUNEL),"CL1-5 tumor tissue; in situ cell death detection, vs control (and gefitinib only)",induced cell apoptosis
same,"EGFR, pEGFR, AKT, and pAKT protein expression","[4]; CL1-5, curcumin 1-20 μM, EGF 20 ng/ml","reduce EGFR, pEGFR, AKT, and pAKT protein expression"
same,pEGFR and pAKT (FIG. 4B),"[4]; CL1-5, gefitinib 1 μM alone, curcumin 10 and 15 μM alone, or gefitinib 1 μM + curcumin 15 μM",minimal suppressive effect
same,"EGFR, pEGFR, AKT, and pAKT protein expression","[5]; A549, curcumin 1-20 μM, EGF 20 ng/ml","reduce EGFR, pEGFR, AKT, and pAKT protein expression"
same,pEGFR and pAKT (FIG. 4B),"[5]; A549, gefitinib 1 μM alone, curcumin 10 and 15 μM alone, or gefitinib 1 μM + curcumin 15 μM",minimal suppressive effect
same,cells in apoptosis,H1975 cells [6],about 90%
same,average tumor size at the end of the study,[7]; curcumin 1 g/kg orally once daily,354.91 mm^3
same,rescue from toxic effect of gefitinib (cell survival),IEC-18 cells,rescue the cells from this toxic effect of gefitinib
same,cell proliferation (FIG. 4A),CL1-5 cells,slight inhibition of cell proliferation
same,proliferation (FIG. 1A right),"CL1-5 cells; CL1-5, curcumin alone",inhibited by curcumin in a concentration-dependent manner
same,cell proliferation (FIG. 4A),H1975 cells [8],slight inhibition of cell proliferation
same,proliferation (FIG. 1A right),"H1975 cells [8]; H1975, curcumin alone",inhibited by curcumin in a concentration-dependent manner
same,cell proliferation (FIG. 4A),A549 cells,slight inhibition of cell proliferation
same,proliferation (FIG. 1A right),"A549 cells; A549, curcumin alone",inhibited by curcumin in a concentration-dependent manner
same,cell proliferation (FIG. 4A),H1650 cells,slight inhibition of cell proliferation
same,proliferation (FIG. 1A right),"H1650 cells; H1650, curcumin alone",inhibited by curcumin in a concentration-dependent manner
same,AKT phosphorylation,[9],not altered
same,level of cyclin D1,[9],significantly reduced
same,EGFR protein expression,[10],inhibit the EGFR protein expression in a dose-dependent manner
"COc1cc2ncnc(Nc3ccc(F)c(Cl)c3)c2cc1OCCCN1CCOCC1 [gefitinib, N-(3-Chloro-4-fluoro-phenyl)-7-methoxy-6-(3-morpholin-4-ylpropoxy)quinazolin-4-amine]",active-p38,"[1]; IEC-18, gefitinib 0-20 μM",significant increased in a dose dependent manner
same,p38 activation,[11],did not elevate the p38 activation
same,body weight,[2],dramatic body weight lost
same,diarrhea,[2],obviously diarrhea side effect
same,morphology / full length of the intestine,[2],shorter and thinner
same,average tumor size at the end of the study,[7]; gefitinib 120 mg/kg orally once daily,138.32 mm^3
same,IC25 for IEC-18 cell,IEC-18 cells; IEC-18,30 µM
same,IEC-18 cell survival,"IEC-18 cells; gefitinib 30 and 40 μM, 24 h",significantly reduce IEC-18 cell survival
same,survival rate,[12],33%
same,cell proliferation (FIG. 4A),A549 cells,slight inhibition of cell proliferation
